# PMC7831380 (ACS chemical biology, 2020)
# No end group written: not given here.
# Test: Overall hydrophobicity from UPLC traces
# Format: physicochemical
# Settings: Supporting Information Figure S1
row,overall hydrophobicity compared to wild-type kB1,Substance
1,increased overall hydrophobicity,"TRWGLPV (also: bicyclic or more (positions not given here)) [[W^mut, 16]kB1]"
2,increased overall hydrophobicity,"TRGFEWLDWEFGLPV (also: bicyclic or more (positions not given here)) [[graft1, 16]kB1]"
